Legend:
Assay in all cases: relative viability (nuclei count vs DMSO), 5 days (fraction); higher = more cells survive
Carboplatin + Tozasertib = compound: C1CC(C1)(C(=O)O)C(=O)O.[NH2-].[NH2-].[Pt+2] [Carboplatin] + Cc1cc(Nc2cc(N3CCN(C)CC3)nc(Sc3ccc(NC(=O)C4CC4)cc3)n2)n[nH]1 [Tozasertib] (partner 0.1 µM)
Summary of the method: (§1)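 Relative viability divides the nuclei count in treated wells by that in vehicle wells. Lung cancer cell lines were seeded in 1536-well plates, dosed by pin tool the next day, and fixed and stained after 5 days in one step with final 0.05% Triton X-100, 1% formaldehyde and 1 ug/ml Hoechst. Dosing was a single drug or a fixed anchor-drug dose plus five library-drug doses (not always all listed) in √10 steps, and values are medians of duplicate plates imaged at 4×.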

MLN4924 + Bortezomib = compound: NS(=O)(=O)OC[C@@H]1C[C@@H](n2ccc3c(N[C@H]4CCc5ccccc54)ncnc32)C[C@@H]1O [MLN4924] + CC(C)C[C@H](NC(=O)[C@H](Cc1ccccc1)NC(=O)c1cnccn1)B(O)O [Bortezomib] (partner 0.002 µM)
Summary of the method: as §1

MLN4924 + Pictilisib = compound: NS(=O)(=O)OC[C@@H]1C[C@@H](n2ccc3c(N[C@H]4CCc5ccccc54)ncnc32)C[C@@H]1O [MLN4924] + CS(=O)(=O)N1CCN(Cc2cc3nc(-c4cccc5[nH]ncc45)nc(N4CCOCC4)c3s2)CC1 [Pictilisib] (partner 1 µM)
Summary of the method: as §1

MLN4924 + Olaparib = compound: NS(=O)(=O)OC[C@@H]1C[C@@H](n2ccc3c(N[C@H]4CCc5ccccc54)ncnc32)C[C@@H]1O [MLN4924] + O=C(c1cc(Cc2n[nH]c(=O)c3ccccc23)ccc1F)N1CCN(C(=O)C2CC2)CC1 [Olaparib] (partner 8 µM)
Summary of the method: as §1

| Cell Line | relative viability (Carboplatin + Tozasertib; first compound 0.08 µM) | relative viability (Carboplatin + Tozasertib; first compound 0.253 µM) | relative viability (Carboplatin + Tozasertib; first compound 0.8 µM) | relative viability (Carboplatin + Tozasertib; first compound 2.53 µM) | relative viability (Carboplatin + Tozasertib; first compound 8 µM) | relative viability (MLN4924 + Bortezomib; first compound 0.04 µM) | relative viability (MLN4924 + Bortezomib; first compound 0.1265 µM) | relative viability (MLN4924 + Bortezomib; first compound 0.4 µM) | relative viability (MLN4924 + Bortezomib; first compound 1.265 µM) | relative viability (MLN4924 + Bortezomib; first compound 4 µM) | relative viability (MLN4924 + Pictilisib; first compound 0.04 µM) | relative viability (MLN4924 + Pictilisib; first compound 0.1265 µM) | relative viability (MLN4924 + Pictilisib; first compound 0.4 µM) | relative viability (MLN4924 + Pictilisib; first compound 1.265 µM) | relative viability (MLN4924 + Pictilisib; first compound 4 µM) | relative viability (MLN4924 + Olaparib; first compound 0.04 µM) | relative viability (MLN4924 + Olaparib; first compound 0.1265 µM) | relative viability (MLN4924 + Olaparib; first compound 0.4 µM) | relative viability (MLN4924 + Olaparib; first compound 1.265 µM) | relative viability (MLN4924 + Olaparib; first compound 4 µM) |
| --- | --- | --- | --- | --- | --- | --- | --- | --- | --- | --- | --- | --- | --- | --- | --- | --- | --- | --- | --- | --- |
| NCI-H727 | 0.572 | 0.653 | 0.54 | 0.562 | 0.624 | 0.624 | 0.512 | 0.313 | 0.267 | 0.225 | 0.4 | 0.311 | 0.268 | 0.291 | 0.244 | 0.599 | 0.422 | 0.559 | 0.369 | 0.481 |
| COR-L 105 | 0.37 | 0.337 | 0.348 | 0.359 | 0.345 | 0.629 | 0.396 | 0.252 | 0.242 | 0.41 | 0.427 | 0.455 | 0.399 | 0.268 | 0.274 | 0.5 | 0.568 | 0.427 | 0.278 | 0.335 |
| NCI-H358 | 0.113 | 0.101 | 0.107 | 0.108 | 0.114 |  |  |  |  |  | 0.481 | 0.496 | 0.227 | 0.175 | 0.188 | 0.537 | 0.494 | 0.312 | 0.0861 | 0.105 |
| SK-MES-1 | 0.812 | 0.938 | 0.925 | 0.922 | 0.843 |  |  |  |  |  | 0.425 | 0.535 | 0.356 | 0.174 | 0.198 | 0.653 | 0.545 | 0.305 | 0.158 | 0.234 |
| LC-2-ad | 0.482 | 0.433 | 0.496 | 0.372 | 0.374 | 0.943 | 0.859 | 0.41 | 0.226 | 0.104 | 0.122 | 0.427 | 0.39 | 0.143 | 0.116 | 0.68 | 0.53 | 0.335 | 0.269 | 0.197 |
| H3255 | 0.829 | 0.603 | 0.577 | 0.52 | 0.525 | 0.559 | 0.707 | 0.262 | 0.2 | 0.32 | 0.453 | 0.382 | 0.317 | 0.203 | 0.217 | 0.481 | 0.372 | 0.297 | 0.253 | 0.268 |
| A-427 | 0.188 | 0.237 | 0.238 | 0.219 | 0.221 | 0.622 | 0.447 | 0.231 | 0.195 | 0.197 | 0.66 | 0.406 | 0.284 | 0.179 | 0.222 | 0.467 | 0.335 | 0.296 | 0.24 | 0.241 |
| NCI-H661 | 0.371 | 0.336 | 0.33 | 0.301 | 0.348 | 0.872 | 0.904 | 0.637 | 0.29 | 0.254 | 0.414 | 0.567 | 0.482 | 0.343 | 0.337 | 0.614 | 0.575 | 0.39 | 0.31 | 0.372 |

From the supplement of paper PMC10307832
